Results taken from ChEMBL document CHEMBL1131708, “Synthesis and protein kinase C binding activity of benzolactam-V7” (Bioorg Med Chem Lett, 1999).

Legend:
[1] = target: T1, Protein kinase C alpha type (Homo sapiens, UniProt P17252); experiment: Displacement of phorbol 12,13-dibutyrate (PDBU) from recombinant Protein kinase C alpha
[2] = target: T1, Protein kinase C alpha type; experiment: Displacement of phorbol 12,13-dibutyrate (PDBU) from recombinant Protein kinase C alpha (Inactive at 300 nM)

Row | Ki [1] | Ki [2] | SMILES
1 | 127 µM | – | CC(C)[C@H]1C(=O)N[C@H](CO)c2ccccc2N1C
2 | 21 µM | – | CCCCCCCCC#Cc1ccc2c(c1)[C@@H](CO)NC(=O)[C@H](C(C)C)N2C
3 | – | Not Active | CC(C)[C@H]1C(=O)NC(CO)c2ccccc2N1C (single isomer, unassigned)
